From the CheMixHub viscosity set
± gives the uncertainty stated by the source.

Test: xn = mol fraction of the nth substance listed
Conditions: 101.33 kPa

COCC(C)OCC(C)O (centres undefined) + CCO
viscosity [mPa·s]
Conditions	298.15 K	308.15 K	318.15 K
x1 = 0.05	1.237 ± 0.019	1.014 ± 0.016	0.84 ± 0.014
x1 = 0.1	1.385 ± 0.021	1.119 ± 0.018	0.92 ± 0.015
x1 = 0.1501	1.525 ± 0.023	1.218 ± 0.019	0.996 ± 0.016
x1 = 0.2	1.661 ± 0.025	1.32 ± 0.02	1.073 ± 0.017
x1 = 0.2501	1.803 ± 0.027	1.421 ± 0.022	1.148 ± 0.018
x1 = 0.3	1.941 ± 0.029	1.521 ± 0.023	1.225 ± 0.019
x1 = 0.35	2.081 ± 0.031	1.623 ± 0.025	1.301 ± 0.02
x1 = 0.4001	2.216 ± 0.033	1.723 ± 0.026	1.379 ± 0.021
x1 = 0.45	2.35 ± 0.035	1.82 ± 0.027	1.451 ± 0.022
x1 = 0.5	2.485 ± 0.036	1.916 ± 0.029	1.525 ± 0.023
x1 = 0.5497	2.616 ± 0.038	2.006 ± 0.03	1.594 ± 0.024
x1 = 0.6	2.744 ± 0.04	2.099 ± 0.031	1.662 ± 0.025
x1 = 0.6497	2.871 ± 0.042	2.192 ± 0.032	1.726 ± 0.026
x1 = 0.7001	3.001 ± 0.043	2.281 ± 0.034	1.796 ± 0.027
x1 = 0.75	3.125 ± 0.045	2.365 ± 0.035	1.857 ± 0.028
x1 = 0.8001	3.241 ± 0.047	2.449 ± 0.036	1.922 ± 0.029
x1 = 0.8497	3.359 ± 0.048	2.531 ± 0.037	1.979 ± 0.029
x1 = 0.8996	3.472 ± 0.05	2.61 ± 0.038	2.036 ± 0.03
x1 = 0.9498	3.579 ± 0.051	2.686 ± 0.039	2.09 ± 0.031

OCCCl + CCO
viscosity [mPa·s]
Conditions	x1 = 0.0955	x1 = 0.2589	x1 = 0.2902	x1 = 0.3931	x1 = 0.4925	x1 = 0.5932	x1 = 0.6938	x1 = 0.7947	x1 = 0.8984
298.15 K	1.086 ± 0.027	1.262 ± 0.03	1.302 ± 0.031	1.45 ± 0.034	1.61 ± 0.038	1.798 ± 0.042	2.001 ± 0.046	2.222 ± 0.051	2.538 ± 0.058
303.15 K	0.987 ± 0.025	1.14 ± 0.028	1.174 ± 0.029	1.306 ± 0.031	1.447 ± 0.034	1.601 ± 0.038	1.772 ± 0.041	1.958 ± 0.045	2.197 ± 0.05
308.15 K	0.897 ± 0.023	1.034 ± 0.026	1.065 ± 0.026	1.179 ± 0.029	1.297 ± 0.031	1.432 ± 0.034	1.579 ± 0.037	1.735 ± 0.041	1.932 ± 0.045
